According to patent US20200054563A1, “PHARMACEUTICAL COMPOSITION FOR IN VIVO DELIVERY, METHOD OF PREPARATION OF A SUBSTANTIALLY WATER-INSOLUBLE PHARMACOLOGICALLY ACTIVE AGENT FOR IN VIVO DELIVERY, AND METHOD OF TREATING DISEASE” (ZY Therapeutics Inc., priority 2017, published 2020):

Assay: Stability of the drug substance during the homogenization process (HPLC spectra)
Format: physicochemical
Settings: nanosuspension prepared at pH 7.2 without pH change; additional peak in HPLC spectra (FIG. 2C), in some cases
Experimental: The formulation was filtered through a 0.22 μm membrane for sterilization. The Paclitaxel content before and after filtration was measured by HPLC. […] The split peak in HPLC may indicate the degradation of the drug during the process.

## CC(=O)O[C@H]1C(=O)[C@@]2(C)[C@H]([C@H](OC(=O)c3ccccc3)[C@]3(O)C[C@H](OC(=O)[C@H](O)[C@@H](NC(=O)c4ccccc4)c4ccccc4)C(C)=C1C3(C)C)[C@]1(OC(C)=O)CO[C@@H]1C[C@@H]2O [Paclitaxel]
  stability of the drug substance during the process: not stable during the process
